Data as given in patent US20230346797A1, “INHIBITORS OF THE PLASMODIAL SURFACE ANION CHANNEL AS ANTIMALARIALS” (The United States of America,as represented by the …, priority 2008, published 2023).

Columns and labels:
P. falciparum [1] = assay: In vitro parasite growth inhibition, SYBR Green I-based fluorescence assay for parasite nucleic acid; type: cell-based; conditions: Plasmodium falciparum, 72 h; 3 days culture; read-out: In vitro growth inhibitory IC50
P. falciparum [2] = assay: In vitro parasite growth inhibition by combinations of two PSAC antagonists (isobologram)
Procedure: Parasite killing by identified PSAC antagonists was evaluated using a SYBR Green I-based fluorescence assay for parasite nucleic acid in 96-well format. […] Cultures were maintained for 3 days at 37° C. in 5% 02, 5% CO2. […] For each antagonist concentration, the mean of triplicate measurements was calculated after subtraction of background fluorescence from cultures killed by 20 μM chloroquine, a known antimalarial agent.
The solid line represents the line of additive killing.

[3] = in combination with compound 11 (Comp. A)
[4] = in combination with compound 24 (Comp. A)
[5] = in combination with compound 26 (Comp. A)
[6] = in combination with compound 31 (Comp. A)

Row | SMILES | IC50 (P. falciparum [1]) [µM] | further results
1 | Cc1cccc(N2CCN(C(=O)c3ccc4c(c3)NC(=O)c3ccccc3S4)CC2)c1C [Compound 2] | 1 | –
2 | O=C1Nc2cc(C(=O)N3CCN(c4ccccc4)CC3)ccc2Sc2ccccc21 [Compound 3] | 0.67 | –
3 | Cc1ccc(C)c(N2CCN(C(=O)c3ccc4c(c3)NC(=O)c3ccccc3S4)CC2)c1 [Compound 5] | 1.33 | –
4 | O=C1Nc2cc(C(=O)N3CCC(N4CCCCC4)CC3)ccc2Sc2ccccc21 [Compound 9] | 6.9 | –
5 | O=C1Nc2cc(C(=O)N3CCC(Cc4ccccc4)CC3)ccc2Sc2ccccc21 [Compound 10] | 3.01 | –
6 | CCC(Cc1ccccc1)NC(=O)c1ccc2c(c1)NC(=O)c1ccccc1S2 (stereo not shown) [Compound 11] | 3 | –
7 | CCOc1ccc(C(=O)Nc2ccc(-c3nn4c(C)nnc4s3)cc2)cc1 [Compound 13] | 3.85 | parasite killing by combination (P. falciparum [2]; [3]): S; parasite killing by combination (P. falciparum [2]; [4]): S; parasite killing by combination (P. falciparum [2]; [5]): S; parasite killing by combination (P. falciparum [2]; [6]): S; parasite killing by combination (P. falciparum [2]; in combination with compound 32 (Comp. A)): S; parasite killing by combination (P. falciparum [2]; in combination with compound 33 (Comp. A)): S; parasite killing by combination (P. falciparum [2]; in combination with compound 34 (Comp. A)): S
8 | O=C(COc1ccc2ccccc2c1)Nc1cccc(-c2nc3ncccc3o2)c1 [Compound 15] | 6 | –
9 | COc1ccc(OCC(=O)Nc2ccc(-c3nn4c(C)nnc4s3)cc2)cc1 [Compound 16] | 4.98 | parasite killing by combination (P. falciparum [2]; [4]): S; parasite killing by combination (P. falciparum [2]; in combination with compound 35 (Comp. A)): S
10 | CCc1nnc2sc(-c3ccc(NC(=O)c4ccc(N5CCCC5)c([N+](=O)[O-])c4)cc3)nn12 [Compound 17] | 39 | –
11 | CCCCOc1ccc(C(=O)Nc2ccc(-c3nn4c(C)nnc4s3)cc2)cc1 [Compound 18] | 2.14 | parasite killing by combination, isobologram (FIG. 3C) (P. falciparum [2]; in combination with compound 24 (component A antagonist), mixtures producing 50% parasite killing): synergistic parasite killing
12 | Cc1nnc2sc(-c3ccc(NC(=O)c4ccc(Br)o4)cc3)nn12 [Compound 19] | 2.74 | –
13 | Cc1cc(-c2nn3c(C)nnc3s2)ccc1NC(=O)c1ccco1 [Compound 20] | 21.6 | –
14 | O=C(Nc1ccc(-c2noc(-c3cccs3)n2)cc1)c1cccnc1 [Compound 21] | 10 | parasite killing by combination (P. falciparum [2]; [4]): S
15 | CCCCCC(=O)Nc1cc(-c2nn3c(C)nnc3s2)ccc1C [Compound 22] | 21.5 | –
16 | Cc1cc(-c2nn3c(C)nnc3s2)ccc1NC(=O)C(C)C [Compound 23] | 36.7 | –
17 | COc1ccc2cc3cc(C(=O)N(C)C4CCCCC4)oc3nc2c1 [Compound 25] | 4 | parasite killing by combination (P. falciparum [2]; [3]): S; parasite killing by combination (P. falciparum [2]; [4]): S; parasite killing by combination (P. falciparum [2]; [5]): S; parasite killing by combination (P. falciparum [2]; [6]): S
18 | CCCN(C(=O)c1cc2cc3ccc(C)cc3nc2o1)c1cccc(C)c1 [Compound 26] | 6.9 | –
19 | COc1ccc(-c2nc3c(=O)[nH]c4ccccc4c3s2)cc1 [Compound 32] | 3 | –
20 | COc1ccc(-c2nc3c(=O)n(C)c4ccccc4c3o2)cc1 [Compound 33] | > 20 | –
21 | CCCCCn1c(=O)c2nc(-c3ccc(OC)cc3)oc2c2ccccc21 [Compound 34] | 15 | –
22 | COc1cc(OC)nc(Sc2ccc(NC(=O)c3ccc(C(C)(C)C)cc3)cc2)n1 [Compound 36] | – | parasite killing by combination (P. falciparum [2]; [4]): S
